Results as given in publication PMC9232501, “Results of the phase I CCTG IND.231 trial of CX-5461 in patients with advanced solid tumors enriched for DNA-repair deficiencies” (Nature Communications, 2022).
Entries after “also recorded” stand apart in the source; their conditions may differ.

Legend:
[1] = system: γ-H2AX (double-stranded DNA breaks); assay: γ-H2AX immunofluorescent staining with and without UVA radiation; format: cell-based; conditions: CX5461 10^-8M, 5x10-8M; PDS 20 x 10^-6M
Protocol: Human epidermal keratinocytes (HEKa) cells were sourced from Thermo Fisher Scientific, and were grown in EpiLife™ Medium with HKGS. HAP WT and XPA knockout cell lines (Horizon Discovery) were cultured in IMDM, 10% FCS. Human HCT116 cells, U2OS cells (ATCC) were grown in McCoy’s 5 A medium with 10% FBS and L-glutamine. All cell lines are mycoplasma free and have been authenticated by STR or SNP profiling. CX-5461 was provided by Senhwa Biosciences, Inc. PDS is from Sigma-Aldrich, BRACO-19 from Alfa Chemistry, PhENDC3 is from Sigma-Aldrich, γ -H2AX antibody from Abcam (1:1000 for IF) and CPD antibody (1:1500) from Cosmo Bio Ltd. (Catalog number: CAC-NM-DAD-001). The WST-1 assay was performed as previously described, γ H2AX foci staining was performed as previously described. Immunofluorescence staining of CPD was performed according to the protocol from the manufacturer (Cosmo Bio Ltd).
Supplementary Figures and Tables
Supplementary Figure 1. UVA radiation increased double-stranded DNA breaks and ROS.
Representative pictures of g -H2AX immunofluorescent staining with and without UVA radiation, for […]
condition, quantified in (b) Quantile and mean intensity of g-H2AX level per cell, vertical axis. UV and drug factor conditions, horizontal axis. […] Number of cells as in Figure 5 g (c) The ratio of ROS level measured after UVA irradiation versus before UVA irradiation was calculated. […]

U2OS cells = assay: CPD (cyclobutane pyrimidine dimer) immunofluorescence after UVA 125 mJ/cm^2; format: cell-based, Human; conditions: 1 h compound exposure
Protocol: Fig. 5 Comparison of G4 ligand photosensitization. […] Vertical axis, fractional survival, horizontal axis log10 drug concentration (M) (f) Representative images of CPD immunofluorescent staining under UV and drug treatment conditions for U2OS cells, quantified from biological duplicates in (g) (h) Scale bar = 100um. U2OS cells were treated with drug or vehicle control, then immediately irradiated with UVA 125 mJ/cm^2; and fixed 1 h later for immunofluorescence staining with CPD antibody. g Distribution of mean intensity of CPD level per cell (total n = in labels), with two biological repeats per condition. Vertical axis, mean CPD intensity per cell, horizontal axis, conditions (h) WT or KO XPA HAP1 cells assayed for cytotoxicity. Vertical axis, fractional survival (WST-1 assay). The horizontal axis, log10 drug concentration (M). Error bars = standard deviation of the mean. Three biological repeats per condition.
Human epidermal keratinocytes (HEKa) cells were sourced from Thermo Fisher Scientific, and were grown in EpiLife™ Medium with HKGS. HAP WT and XPA knockout cell lines (Horizon Discovery) were cultured in IMDM, 10% FCS. Human HCT116 cells, U2OS cells (ATCC) were grown in McCoy’s 5 A medium with 10% FBS and L-glutamine. All cell lines are mycoplasma free and have been authenticated by STR or SNP profiling. […]

Cc1cnc(CNC(=O)c2c(=O)c3ccc(N4CCCN(C)CC4)nc3n3c2sc2ccccc23)cn1 [CX-5461]
DNA damage (γ-H2AX) in the presence of UVA [1]: synergistically increased; also recorded: markedly increased | potentiation of CPD formation by UVA (U2OS cells): strong potentiation
